The values below come from article PMC10924921, “Mi-2β promotes immune evasion in melanoma by activating EZH2 methylation” (Nature Communications, 2024).

SMILES strings stand for the structures.

Data set [1] deals with secreted Cxcl9 and Cxcl10, B16F10 cells. Briefly: ELISA of secreted Cxcl9 and Cxcl10 in stimulated cells. Type of data set: cell-based, mouse. The following applies: MS177 (10 μM), GSK126 (2μM) or Z36-MP5 (10 μM). On the procedure: B16F10 cells (1 × 10^6) with or without Mi-2β knockdown were seeded in 6-well plates in complete growth medium. Cell medium was changed to serum-free medium, before treatment with IFN-γ at indicated concentration for 24 h. The secreted chemokines were measured by mouse Cxcl9 ELISA kit (ab203364) and mouse Cxcl10 ELISA Kit (ab214563), according to the manufacturer’s protocols. Isolated graft tumors were prepared and minced with blades, then tumor tissues were cultured in PBS (250 mg/500 µl) for 4 h at 37 °C. The secreted amount of the chemokines in the culture were measured by mouse Cxcl9 ELISA kit (ab203364) and mouse Cxcl10 ELISA Kit (ab214563), according to the manufacturer’s protocols.
Supplementary Figure 10. Comparison of tumor growth inhibition effects between Z36-MP5 and EZH2 inhibitors. a Mice (n=8) bearing B16F10 cells were treated with control IgG or anti-PD-1 antibody in combination with Z36-MP5 or GSK126, as indicated. A mouse survival curve is shown, with log-rank test for mouse survival P value. b,c The epigenetic modifications of H3 (H3K27ac, H3K27me1 and H3K27me3) were measured in B16F10 cells stimulated with GSK126 or Z36-MP5 as indicated (n = 3, independent experiments). d The amount of secreted Cxcl9 and Cxcl10 was measured by ELISA in […]
represent mean ± SD. The unpaired, two tailed t-test. Source data are provided as a Source Data file. […]

Data set [2] relates to Pmel-1 T cells co cultured with tumor cells. Briefly: Pmel-1 T-cell killing of tumor cells. Type of data set: cell-based, mouse. On the procedure:
To test whether Z36-MP5 affects cell proliferation, cells were seeded into 96-well plates at a density of 1 × 10^3 cells/100 μl per well. CCK-8 was used to detect changes in proliferation ability after 3 days of treatment with Z36-MP5 (25 μM). To test whether Mi-2β expression in T cells or treatment of T cells with Z36-MP5 affects the ability of T cells to kill tumor cells, Mi-2β in Pmel-1 T cells was manipulated or Pmel-1 cells were exposed to Z36-MP5 (25 μM) for 24 hrs. The number of cells was quantified. One thousand Pmel-1 T cells were then co cultured with 1000 tumor cells for 24 hrs, and the number of tumor cells was counted.
Supplementary Figure 8. In vitro assay for Mi-2β inhibitors. a The body weight changes of C57BL/6J mice treated with Z36-MP5 (30 mg/kg/day) for 2 weeks. Data are mean ± SEM (n=5). b H&E staining of tissues in C57BL/6J mice treated with or without Z36 -MP5 (30 mg/kg/day) for 2 weeks. […]
The growth of tumor grafts was measured. n = 5. g Mice bearing B16F10 cell s were treated with MS177 (100 mg/kg, 5 days) and then Z36 -MP5 (30 mg/kg/day) or vehicles, accompanied with anti -PD-1 antibody […]

Data set [3] can be described thus: Estimated blood concentration in mice. To be noted: intraperitoneal 30 mg per kg, extrapolated from rat. It counts as in vivo. An excerpt:
FLT3 kinase inhibitor for acute myeloid leukemia with FLT3 mutations. J Med Chem, 61, 3855-3869 (2018); Lexian Tong et al., Identification of 2-aminopyrimidine derivatives as FLT3 kinase inhibitors with high selectivity over c-KIT. J Med Chem, 65, 3229-3248 (2022)). In these cases, the cellular form of the FLT3-WT or FLT3-ITD mutant was preferentially bound. Another example is paclitaxel, a microtubule-stabilizing agent that is widely used in cancer chemotherapy. Biochemical competitive […]
(Shubhada Sharma, et al., Dissecting paclitaxel–microtubule association: quantitative assessment of the 2’-OH group. Biochemistry, 52, 2328-2336 (2013)). Paclitaxel sensitizes BG-1 ovarian cancer cells to radiation at a dose that was not cytotoxic and […]
sensitizer: a flow cytometric study. Gynecol Oncol, 50, 89-93 (1993)).
Like the Mi-2β silencing by shMi-2β (Supplementary Fig. 3C), we observed substantial increases in expressions of Mi-2β target genes, Cxcl9 and Cxcl10, to similar levels after treatment of B16F10 cells with Z36-MP5 at concentrations 5 μM to 100 μM (Fig. 5F).
MP5 treatment would be sufficient for inhibiting Mi-2β in cells. Moreover, we observed a maintenance of blood concentration of 4 μM to 10 μM Z36-MP5 in rat for around 1 hour after the intraperitoneal injection at a dose of Z36-MP5 as low as 1 mg per kg […]

As to `Cn1c(=O)[nH]c2ccc(-c3cccc(C(=O)NC4CCn5ccnc5C4)c3)cc21` (stereo not drawn) [Z36-MP5], the “induction of ISGs compared with GSK126 or MS177” value in data set [1] was “more efficiently induced”. The “killing potential of T cells” value in data set [2] is on record as “not significantly inhibited”. Also, in data set [3], the “estimated highest blood concentration in mice” value is “around 0.97 mM”.
